Experimental data reported in US20250241908A1 (SHANGHAI YAO YUAN BIOTECHNOLOGY CO., LTD., priority 2022, published 2025).
Like-named read-outs stand apart in the source and are kept apart here.

Key:
[1] = test system: ALPK1-TIFA-IL1β pathway in THP-1-derived macrophage cells; experiment: PMA-differentiated THP-1 cell based assay; conditions: for IC50: Homo sapiens, PMA-differentiated THP-1 cells stimulated with ALPK1 agonist
Method: We evaluated the ability of ALPK1 inhibitors to suppress IL1β, IL8 and TNF-α levels following ALPK1 activation in THP-1-derived macrophage cells. […] Inhibitory activity is measured as suppression of IL1β.
THP-1 cells were cultured in RPMI 1640 containing 10% heat inactivated FBS, penicillin (100 units/ml) and streptomycin (100 μg/ml), and maintained in a humidified incubator with 95% atmospheric air and 5% CO2. Prior to the experiment, THP-1 cells were seeded into 24-well flat-bottom plate at a cell density of 40,0000 cells/well. Phorbol myristate acetate (PMA; 50 ng/ml) was used to treat THP-1 cells for 48 h, and then THP-1-derived macrophages were obtained. […] Total RNA was extracted using the TRIzol method and reverse-transcribed. The mRNA expression levels IL1β, IL8 and TNF-α were detected by SYBR green gene expression assays. Expression levels of mRNA were normalized to GAPDH. Relative expression was calculated by comparing to vehicle control and the values were plotted as fold induction. All activity results were expressed as the mean of triplicate determinations. IC50 was determined from dose response curve using Prism Software, version 6.00 from GraphPad Software.

[2] = test system: ALPK1-dependent gene expression in PBMC; experiment: Inhibition of ALPK1 in PBMC cells; format: in vivo, Sprague-Dawley (SD) rats; conditions: SD rats, 10 mpk oral, ALPK1 agonist ip 2 h later, blood 3 h after agonist; compared with vehicle group
Method: We examined whether ALPK1 inhibitors can suppress ALPK1-dependent activation of a set of such genes in rats. […] PBMCs were collected and gene expression analyzed, as described in more detail below.
After 3 hours administration of the ALPK1 agonist, the blood was collected from heart, and PBMC were extracted from each group.

[3] = test system: ALPK1-TIFA pathway target gene mRNA in HASMC; experiment: Primary Human Aorta Smooth Muscle Cell-based assay; conditions: for IC50: Homo sapiens, HASMC stimulated with ALPK1 agonist
Method: Primary Human Aorta smooth muscle Cells (HASMC) grow in Smooth muscle Cell Basal Media supplemented with Smooth Muscle Cell Growth Kit components (PriMed-iCell-002, iCell), provide an ideal cell system to propagate HASMC.
Briefly, primary HASMC were seeded at a density of 25000 cells per well to a collagen coated 24-well culture plate. […] Total RNA was extracted using the RNeasy mini kit method and reverse-transcribed. The mRNA expression levels of target genes were detected by SYBR green gene expression assays. Expression levels of mRNA were normalized to HPRT. Relative expression was calculated by comparing to vehicle control and the values were plotted as fold induction. All activity results were expressed as the mean of triplicate determinations. IC50 was determined from dose response curve using Prism Software, version 6.00 from GraphPad Software.

[4] = test system: innate immunity gene expression following ALPK1 activation; experiment: Inhibition of ALPK1 in coronary artery, aorta, and heart muscle; format: in vivo, Sprague-Dawley (SD) rats; conditions: SD rats, 40 mpk oral, ALPK1 agonist ip 2 h later, tissue 3 h after agonist; compared with vehicle group
[5] = test system: PCL induced atherosclerosis in ApoE knockout mice; experiment: ApoE mice, high fat diet, Partial Carotid Ligation atherosclerosis model; format: in vivo, mouse; conditions: high fat diet, 1, 3, 9 mg/kg oral once daily for 2 weeks from PCL surgery
Text: To determine the efficacy of ALPK1 inhibitor in atherosclerosis, we treat the ApoE mice with High Fat Diet (Research Diet, D12109C), and perform Partial Carotid Ligation (PCL) surgery on left Carotid artery as described previously (Zhang, Chenghu et al. “Coupling of Integrin a5 to Annexin A2 by Flow Drives Endothelial Activation.” Circulation research vol. 127, 8 (2020): 1074-1090) to accelerate the development of atherosclerosis. […] Two weeks later, the carotid artery of ligated side was collected, the contralateral carotid from vehicle group were served as control. The carotid was fixed and sectioned. The wall thicknesses were quantified by software.

[6] = test system: carotid artery of Guinea Pig after PCL surgery; experiment: Guinea pig, high fat diet, Partial Carotid Ligation model; format: in vivo; conditions: 6 weeks high fat diet
[7] = test system: OSS-induced inflammatory signaling in ECs (HUVECs); experiment: Oscillatory shear stress (OSS) in HUVECs; format: cell-based, human; conditions: oscillatory flow 0.5±4 dyn/cm2 for 6 hours, 300 nM
Method: For flow experiments, confluent monolayers of HUVECs were seeded on glass slides, Static condition (ST) without any treatment served as control and a parallel plate flow system was used to impose oscillatory flow (0.5±4 dyn/cm2) for 6 hours.

ALPK1 = ALPK1 (Homo sapiens (Human), UniProt Q96QP1); experiment: ALPK1 in vitro kinase assay (HTRF, TIFA phosphorylation); format: biochemical; conditions: HTRF of HA-tagged TIFA; ALPK1 2 nM; ADP-Heptose as activator
Sequence of ALPK1 (Q96QP1 whole entry): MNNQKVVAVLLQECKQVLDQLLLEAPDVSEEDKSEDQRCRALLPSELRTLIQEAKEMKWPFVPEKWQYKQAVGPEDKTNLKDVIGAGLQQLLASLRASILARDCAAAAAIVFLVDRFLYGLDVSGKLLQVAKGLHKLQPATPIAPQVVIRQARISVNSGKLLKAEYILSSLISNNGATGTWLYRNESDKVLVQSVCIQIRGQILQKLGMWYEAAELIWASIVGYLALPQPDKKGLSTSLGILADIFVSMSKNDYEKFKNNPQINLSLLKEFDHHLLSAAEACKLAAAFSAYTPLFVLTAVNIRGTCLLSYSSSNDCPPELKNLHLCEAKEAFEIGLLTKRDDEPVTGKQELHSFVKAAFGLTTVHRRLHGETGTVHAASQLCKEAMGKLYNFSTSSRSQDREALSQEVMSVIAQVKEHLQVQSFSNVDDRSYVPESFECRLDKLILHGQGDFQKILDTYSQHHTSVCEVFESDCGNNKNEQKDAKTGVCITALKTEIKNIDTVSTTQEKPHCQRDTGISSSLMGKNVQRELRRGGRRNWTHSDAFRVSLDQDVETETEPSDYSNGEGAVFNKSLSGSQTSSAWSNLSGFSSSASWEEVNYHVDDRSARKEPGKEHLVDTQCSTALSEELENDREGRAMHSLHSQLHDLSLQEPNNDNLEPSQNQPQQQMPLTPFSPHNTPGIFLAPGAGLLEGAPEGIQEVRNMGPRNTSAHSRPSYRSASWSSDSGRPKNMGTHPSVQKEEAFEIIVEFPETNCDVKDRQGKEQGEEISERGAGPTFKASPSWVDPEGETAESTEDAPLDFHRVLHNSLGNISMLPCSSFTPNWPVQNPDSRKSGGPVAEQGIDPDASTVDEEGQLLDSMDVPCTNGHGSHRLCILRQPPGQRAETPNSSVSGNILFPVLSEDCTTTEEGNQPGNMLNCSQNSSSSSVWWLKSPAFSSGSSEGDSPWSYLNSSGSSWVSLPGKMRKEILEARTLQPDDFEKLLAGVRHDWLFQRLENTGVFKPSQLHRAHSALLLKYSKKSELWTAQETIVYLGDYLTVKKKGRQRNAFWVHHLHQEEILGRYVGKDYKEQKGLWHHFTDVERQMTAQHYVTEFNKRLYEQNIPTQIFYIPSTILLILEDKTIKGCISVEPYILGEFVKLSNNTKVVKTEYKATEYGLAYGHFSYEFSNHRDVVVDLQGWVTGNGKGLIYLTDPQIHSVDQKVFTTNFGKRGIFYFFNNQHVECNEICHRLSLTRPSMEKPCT
Method: ALPK1 kinase activity was measured in an in vitro assay using ADP-Heptose as the ALPK1 ligand and activator of its kinase activity and TIFA protein as the ALPK1 phosphorylation substrate. Since phosphorylated TIFA proteins oligomerize, Homogeneous Time-Resolved Fluorescence (HTRF) was used to measure protein: protein interaction between HA-tagged TIFA proteins as an indicator of TIFA phosphorylation.
In brief, dose-response studies were performed in 384-well assay plates. Each well contained 0.1 mg TIFA, ALPK1 (2 nM final concentration in reaction mixture) and kinase buffer (100 mM of HEPES pH 7.4, 4 mM DTT, 40 mM MgCl2, 20 mM of β-Glycerol phosphate disodium salt, 0.4 mM of Na3 VO4, 0.16 mg/mL). Titrations of the test compounds were prepared in dimethylsulphoxide (DMSO). The reaction was initiated by addition of ATP and ADP-Heptose.
For HTRF, samples were incubated with a Tb cryptate-labeled anti-HA antibody for capturing HA-tagged proteins according to the manufacturer's instructions (PerkinElmer™, CisBio™) and the fluorescence signal was quantified (Tecan Infinite F NANO+). HTRF signals were calculated as the HTRF ratio (ratio of fluorescence measured at 665 nm and 620 nm)×104 (thereby using the signal at 620 nm as an internal standard).
IC50 values were determined using 3- or 4-parameter logistic equation using GraphPad Prism version 6.00.

## C#C[C@@](C)(c1ccc(Cl)cc1)c1csc(NC(=O)NCCO)n1 [Compound A176, (S)-1-(4-(2-(4-chlorophenyl)but-3-yn-2-yl)thiazol-2-yl)-3-(2-hydroxyethyl)urea]
[1]; THP-1-derived macrophages
  inhibition of IL1β induced by ALPK1 activation: potent inhibition
[2]
  PBMC mRNA expression for CCL-2, CCL-7, CXCL-1, CXCL-10, CXCL-11 and IL-1β: significant decreases

## C#C[C@@](C)(c1ccc(Cl)cc1)c1csc(NC(=O)c2c(F)cc(N3CCNCC3)cc2F)n1 [Compound C008, (S)-N-(4-(2-(4-chlorophenyl)but-3-yn-2-yl)thiazol-2-yl)-2,6-difluoro-4-(piperazin-1-yl)benzamide]
[1]; read-out: IL-8 mRNA IC50
  IC50: 6 nM
[1]; read-out: TNF-α mRNA IC50
  IC50: 9 nM
[1]; THP-1-derived macrophages
  inhibition of IL1β induced by ALPK1 activation: potent inhibition
  inhibition of IL8 and TNF-α mRNA induced by ALPK1 activation: potent inhibition
[3]; HASMC
  IL8, TIFA, ICAM-1, VCAM-1 mRNA levels induced by ALPK1 activation: dose dependently inhibited
[3]; read-out: IC50 ICAM-1 mRNA
  IC50: 47 nM
[3]; read-out: IC50 IL8 mRNA
  IC50: 110 nM
[3]; read-out: IC50 TIFA mRNA
  IC50: 115 nM
[3]; read-out: IC50 VCAM-1 mRNA
  IC50: 38 nM
[4]
  mRNA expression of aorta IL-6, CXCL-1, CXCL-10, CCL-2: significantly decreased
  mRNA expression of cardiac muscle TNF-α, IL-1b, IL-6, CXCL-1, CXCL-10, CXCL-11, CCL-2 and CCL-5: significantly decreased
  mRNA expression of coronary artery TNF-α, CXCL-1, CCL-2 and CCL-7: significantly decreased
[2]
  PBMC mRNA expression for CCL-7, CXCL-1, CXCL-10, CXCL-11, IL-1β, TNF-α and IL-6: significant decreases
[5]
  PCL induced atherosclerosis (carotid artery wall thickness): dose dependently inhibited
[6]
  fibrosis area percentage of the carotid artery (Masson staining): decreased
  liver CYP7A1 expression: elevated CYP7A1 expression dose dependently
  total plasma cholesterol level: dose dependently decreased
  wall thickness of the carotid artery (Masson staining): decreased
[7]
  OSS-induced inflammatory signaling in ECs (E-selectin and inflammatory cytokine mRNA): reduced

## COc1ccc(C(C)(C)c2csc(NC(=O)c3ccc(N4CCNCC4C)cc3)n2)cc1 (centres unmarked) [Compound B014]
ALPK1
  IC50: 300 nM

## COc1ccc(C(C)(C)c2csc(NC(=O)c3ccc(N4CCNCC4)cn3)n2)cc1 [Compound B044, N-(4-(2-(4-methoxyphenyl)propan-2-yl)thiazol-2-yl)-5-(piperazin-1-yl)picolinamide]
ALPK1
  IC50: 213 nM
